Assay results: publication PMC13187428, “Mechanistic basis for selective Csm6-2 activation by cyclic penta-adenylate in a type III CRISPR-Cas system” (The EMBO Journal, 2026)
Like-named read-outs stand apart in the source and are kept apart here. Each block holds one molecule with its values, some of them ahead of it.

Experiments:
Csm6-2 (ApCsm6-2) = target: T1, Csm6-2 (ApCsm6-2) (Actinomyces procaprae, UniProt Z9IBH4OPS2); test: SPR (Biacore 8K, CM5 chip, amine-coupled Csm6-2); format: binding
T1 construct: full length, tandem CARF1-HEPN1 (1-400) and CARF2-HEPN2 (401-797); N-terminal His6 tag, pET-28a, E. coli Rosetta (DE3), codon-optimised; homotetramer
T1 sequence (Z9IBH4OPS2 1-797): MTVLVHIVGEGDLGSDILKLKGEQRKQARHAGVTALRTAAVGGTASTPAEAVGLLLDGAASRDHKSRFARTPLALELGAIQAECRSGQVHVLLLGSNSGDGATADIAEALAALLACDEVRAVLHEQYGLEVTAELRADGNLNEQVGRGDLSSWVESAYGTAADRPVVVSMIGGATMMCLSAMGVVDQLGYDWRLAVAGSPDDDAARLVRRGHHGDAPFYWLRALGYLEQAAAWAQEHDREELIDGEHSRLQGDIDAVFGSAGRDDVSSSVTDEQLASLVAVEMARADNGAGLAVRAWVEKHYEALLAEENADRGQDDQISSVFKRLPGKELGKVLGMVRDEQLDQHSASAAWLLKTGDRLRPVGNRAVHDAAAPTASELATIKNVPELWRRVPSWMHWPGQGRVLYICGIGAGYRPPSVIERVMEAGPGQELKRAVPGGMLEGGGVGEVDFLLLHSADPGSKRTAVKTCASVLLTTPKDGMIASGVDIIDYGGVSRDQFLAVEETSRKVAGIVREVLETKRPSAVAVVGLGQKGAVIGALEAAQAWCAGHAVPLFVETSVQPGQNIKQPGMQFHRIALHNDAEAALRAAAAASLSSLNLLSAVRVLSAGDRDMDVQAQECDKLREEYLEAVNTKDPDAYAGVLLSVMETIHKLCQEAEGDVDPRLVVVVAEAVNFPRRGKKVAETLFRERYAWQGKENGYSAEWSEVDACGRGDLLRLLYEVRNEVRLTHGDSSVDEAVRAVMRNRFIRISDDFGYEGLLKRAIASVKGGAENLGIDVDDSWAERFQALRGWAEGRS

[1] = target: Csm6-2 L473E/L474E mutant (Actinomyces procaprae); test: SEC; size-exclusion chromatography profiles of WT and L473E/L474E mutant proteins

Kd (Csm6-2 (ApCsm6-2)): 3.72 nM
Molecule: Nc1ncnc2c1ncn2[C@@H]1O[C@@H]2COP(=O)(O)O[C@H]3[C@@H](O)[C@H](n4cnc5c(N)ncnc54)O[C@@H]3COP(=O)(O)O[C@H]3[C@@H](O)[C@H](n4cnc5c(N)ncnc54)O[C@@H]3COP(=O)(O)O[C@H]3[C@@H](O)[C@H](n4cnc5c(N)ncnc54)O[C@@H]3COP(=O)(O)O[C@H]3[C@@H](O)[C@H](n4cnc5c(N)ncnc54)O[C@@H]3COP(=O)(O)O[C@H]3[C@@H](O)[C@H](n4cnc5c(N)ncnc54)O[C@@H]3COP(=O)(O)O[C@H]2[C@H]1O [cA6]

stoichiometry N [1]: 2
Molecule: Csm6-2 L473E/L474E mutant (enzyme)

Kd (Csm6-2 (ApCsm6-2); PBST (0.5% Tween-20) running buffer, allosteric activator, CARF domain pocket): 1.41 nM
Molecule: Nc1ncnc2c1ncn2[C@@H]1O[C@@H]2COP(=O)(O)O[C@H]3[C@@H](O)[C@H](n4cnc5c(N)ncnc54)O[C@@H]3COP(=O)(O)O[C@H]3[C@@H](O)[C@H](n4cnc5c(N)ncnc54)O[C@@H]3COP(=O)(O)O[C@H]3[C@@H](O)[C@H](n4cnc5c(N)ncnc54)O[C@@H]3COP(=O)(O)O[C@H]3[C@@H](O)[C@H](n4cnc5c(N)ncnc54)O[C@@H]3COP(=O)(O)O[C@H]2[C@H]1O [cA5]
